Assay results published in the OligoGym collection.
HELM strings list units from the 5' end as sugar, base in round brackets, then linkage (d deoxyribose, r ribose, m 2'-O-methyl, p phosphodiester). Strings are as the collection lists them, not checked against the first reports. ss, as = sense and antisense strand; [lna] = locked nucleic acid (LNA); [una] = unlocked nucleic acid; [hna] = hexitol nucleic acid; [s4r] = 4'-thioribose; [fl2r] = 2'-fluoro

details: siRNA
Also: test system not given here.

Substance	target mRNA knockdown [%]
RNA1{r(A)p.r(A)p.r(G)p.r(G)p.r(A)p.r(C)p.r(C)p.[fl2r](U)p.r(A)p.r(G)p.r(A)p.r(G)p.r(G)p.r(A)p.r(G)p.r(U)p.[fl2r](C)p.r(A)p.r(C)p.r(T)p.r(T)}|RNA2{r(G)p.[fl2r](U)p.r(G)p.r(A)p.r(C)p.r(U)p.r(C)p.r(C)p.r(U)p.r(C)p.[fl2r](U)p.r(A)p.r(G)p.r(G)p.r(U)p.r(C)p.r(C)p.r(U)p.r(U)p.r(T)p.r(T)}$$$RNA1{StrandType:ss}|RNA2{StrandType:as}$	87
RNA1{r(C)p.r(U)p.r(U)p.r(A)p.r(C)p.r(G)p.r(C)p.r(U)p.r(G)p.r(A)p.r(G)p.r(U)p.r(A)p.r(C)p.r(U)p.r(U)p.r(C)p.r(G)p.r(A)p.r(T)p.r(T)}|RNA2{r(U)p.r(C)p.r(G)p.r(A)p.r(A)p.r(G)p.r(U)p.r(A)p.r(C)p.r(U)p.r(C)p.r(A)p.r(G)p.r(C)p.[lna](G)p.r(U)p.r(A)p.r(A)p.r(G)p.r(T)p.r(T)}$$$RNA1{StrandType:ss}|RNA2{StrandType:as}$	85
RNA1{[fl2r](G)p.r(C)p.[fl2r](U)p.r(G)p.[fl2r](A)p.r(A)p.[fl2r](C)p.r(U)p.[fl2r](A)p.r(G)p.[fl2r](U)p.r(C)p.[fl2r](G)p.r(A)p.[fl2r](A)p.r(A)p.[fl2r](G)p.r(A)p.[fl2r](A)p.r(T)p.r(T)}|RNA2{r(U)p.r(U)p.r(C)p.r(U)p.r(U)p.r(U)p.r(C)p.r(G)p.[fl2r](A)p.r(C)p.r(U)p.[fl2r](A)p.r(G)p.r(U)p.r(U)p.r(C)p.[fl2r](A)p.r(G)p.r(C)p.r(T)p.r(T)}$$$RNA1{StrandType:ss}|RNA2{StrandType:as}$	49
RNA1{m(A)p.r(A)p.m(A)p.r(C)p.m(C)p.r(C)p.m(C)p.r(U)p.m(A)p.r(G)p.m(A)p.r(G)p.m(G)p.r(G)p.m(C)p.r(A)p.m(A)p.r(G)p.m(U)p.r(T)p.r(T)}|RNA2{r(A)p.r(C)p.r(U)p.r(U)p.r(G)p.r(C)p.r(C)p.r(C)p.r(U)p.r(C)p.r(U)p.r(A)p.r(G)p.r(G)p.r(G)p.r(G)p.r(U)p.r(U)p.r(U)p.r(T)p.r(T)}$$$RNA1{StrandType:ss}|RNA2{StrandType:as}$	62
RNA1{r(G)p.r(U)p.r(A)p.r(U)p.r(G)p.r(A)p.r(C)p.r(C)p.r(G)p.r(A)p.r(C)p.r(U)p.r(A)p.r(C)p.r(G)p.r(C)p.r(G)p.r(U)p.r(A)p.r(T)p.r(T)}|RNA2{r(U)p.r(U)p.r(C)p.r(A)p.r(G)p.r(U)p.r(G)p.r(U)p.r(G)p.r(A)p.[una](U)p.r(G)p.r(A)p.r(C)p.r(A)p.r(C)p.r(U)p.r(U)p.r(G)p.r(T)p.r(T)}$$$RNA1{StrandType:ss}|RNA2{StrandType:as}$	0
RNA1{r(C)p.r(G)p.r(U)p.r(A)p.r(C)p.r(G)p.r(C)p.r(G)p.r(G)p.r(A)p.r(A)p.r(U)p.r(A)p.r(C)p.r(U)p.[s4r](U)p.[s4r](C)p.[s4r](G)p.[s4r](A)p.r(T)p.r(T)}|RNA2{[s4r](U)p.[s4r](C)p.[s4r](G)p.[s4r](A)p.r(A)p.r(G)p.r(U)p.r(A)p.r(U)p.r(U)p.r(C)p.r(C)p.r(G)p.r(C)p.r(G)p.r(U)p.r(A)p.r(C)p.r(G)p.r(T)p.r(T)}$$$RNA1{StrandType:ss}|RNA2{StrandType:as}$	35.1
RNA1{r(A)p.r(A)p.m(U)p.r(A)p.r(A)p.r(G)p.m(C)p.r(A)p.r(G)p.r(C)p.r(U)p.r(C)p.r(G)p.m(C)p.r(G)p.r(C)p.r(U)p.r(C)p.r(C)p.r(T)p.r(T)}|RNA2{r(G)p.r(G)p.r(A)p.r(G)p.r(C)p.r(G)p.r(C)p.r(G)p.r(A)p.r(G)p.r(C)p.m(U)p.r(G)p.r(C)p.r(U)p.m(U)p.r(A)p.r(U)p.r(U)p.r(T)p.r(T)}$$$RNA1{StrandType:ss}|RNA2{StrandType:as}$	51
RNA1{r(A)p.r(G)p.r(A)p.r(A)p.r(A)p.r(C)p.r(G)p.r(C)p.r(A)p.r(G)p.m(U)p.m(A)p.r(A)p.r(U)p.r(C)p.r(C)p.r(G)p.r(G)p.r(A)p.r(T)p.r(T)}|RNA2{r(U)p.r(C)p.r(C)p.r(G)p.r(G)p.r(A)p.r(U)p.m(U)p.r(A)p.r(C)p.r(U)p.r(G)p.r(C)p.r(G)p.r(U)p.r(U)p.r(U)p.r(C)p.r(U)p.r(T)p.r(T)}$$$RNA1{StrandType:ss}|RNA2{StrandType:as}$	85
RNA1{[hna](G)p.[hna](A)p.[hna](C)p.r(G)p.r(U)p.r(A)p.r(A)p.r(A)p.r(C)p.r(G)p.r(G)p.r(C)p.r(C)p.r(A)p.r(C)p.r(A)p.r(A)p.[hna](G)p.[hna](U)p.[hna](U)p.d(T)}|RNA2{r(A)p.r(C)p.[hna](U)p.r(U)p.r(G)p.r(U)p.r(G)p.r(G)p.r(C)p.r(C)p.r(G)p.r(U)p.r(U)p.r(U)p.r(A)p.r(C)p.r(G)p.[hna](U)p.[hna](C)p.[hna](G)p.d(T)}$$$RNA1{StrandType:ss}|RNA2{StrandType:as}$	80.6
RNA1{m(G)p.r(U)p.m(A)p.r(C)p.m(U)p.r(C)p.m(U)p.r(G)p.m(A)p.r(U)p.m(G)p.r(A)p.m(G)p.r(G)p.m(A)p.r(A)p.m(G)p.r(A)p.m(G)p.r(T)p.r(T)}|RNA2{r(C)p.r(U)p.r(C)p.r(U)p.r(U)p.r(C)p.r(C)p.r(U)p.r(C)p.r(A)p.r(U)p.r(C)p.r(A)p.r(G)p.r(A)p.r(G)p.r(U)p.r(A)p.r(C)p.r(T)p.r(T)}$$$RNA1{StrandType:ss}|RNA2{StrandType:as}$	18
RNA1{r(A)p.r(G)p.r(A)p.r(G)p.r(G)p.r(A)p.r(C)p.r(C)p.m(U)p.r(A)p.r(G)p.r(A)p.r(A)p.r(G)p.r(G)p.r(C)p.r(G)p.r(G)p.r(C)p.r(T)p.r(T)}|RNA2{r(G)p.r(C)p.r(C)p.r(G)p.r(C)p.r(C)p.m(U)p.m(U)p.r(C)p.m(U)p.r(A)p.r(G)p.r(G)p.m(U)p.r(C)p.r(C)p.m(U)p.r(C)p.m(U)p.r(T)p.r(T)}$$$RNA1{StrandType:ss}|RNA2{StrandType:as}$	72
RNA1{r(A)p.r(U)p.r(C)p.r(A)p.r(G)p.r(A)p.r(G)p.r(G)p.r(G)p.r(A)p.r(G)p.r(G)p.r(U)p.r(C)p.r(U)p.m(U)p.r(A)p.r(G)p.r(A)p.r(T)p.r(T)}|RNA2{r(U)p.r(C)p.m(U)p.r(A)p.r(A)p.r(G)p.r(A)p.r(C)p.r(C)p.r(U)p.r(C)p.r(C)p.r(C)p.r(U)p.r(C)p.r(U)p.r(G)p.r(A)p.r(U)p.r(T)p.r(T)}$$$RNA1{StrandType:ss}|RNA2{StrandType:as}$	69
RNA1{r(G)p.r(G)p.r(G)p.r(A)p.r(A)p.r(A)p.[fl2r](C)p.[fl2r](U)p.r(G)p.r(A)p.r(A)p.r(A)p.r(G)p.r(G)p.[fl2r](C)p.[fl2r](U)p.r(A)p.[fl2r](U)p.r(G)p.r(T)p.r(T)}|RNA2{r(C)p.r(A)p.r(U)p.r(A)p.r(G)p.r(C)p.r(C)p.r(U)p.r(U)p.r(U)p.r(C)p.r(A)p.r(G)p.r(U)p.r(U)p.r(U)p.r(C)p.r(C)p.r(C)p.r(T)p.r(T)}$$$RNA1{StrandType:ss}|RNA2{StrandType:as}$	51
RNA1{r(A)p.r(G)p.r(C)p.m(C)p.r(A)p.m(C)p.r(A)p.r(U)p.r(U)p.r(U)p.r(C)p.m(U)p.r(A)p.r(G)p.r(G)p.r(A)p.r(G)p.r(A)p.r(U)p.r(T)p.r(T)}|RNA2{r(A)p.r(U)p.r(C)p.r(U)p.r(C)p.r(C)p.m(U)p.r(A)p.m(G)p.r(A)p.r(A)p.r(A)p.r(U)p.r(G)p.m(U)p.r(G)p.r(G)p.r(C)p.r(U)p.r(T)p.r(T)}$$$RNA1{StrandType:ss}|RNA2{StrandType:as}$	26
RNA1{r(G)p.r(C)p.[fl2r](U)p.r(A)p.r(C)p.r(C)p.r(G)p.r(C)p.r(A)p.r(A)p.r(C)p.r(C)p.r(A)p.r(C)p.r(G)p.r(A)p.r(G)p.r(C)p.r(U)p.r(T)p.r(T)}|RNA2{r(A)p.r(G)p.r(C)p.r(U)p.r(C)p.r(G)p.r(U)p.r(G)p.r(G)p.r(U)p.r(U)p.r(G)p.r(C)p.r(G)p.r(G)p.[fl2r](U)p.r(A)p.r(G)p.r(C)p.r(T)p.r(T)}$$$RNA1{StrandType:ss}|RNA2{StrandType:as}$	45
RNA1{r(G)p.r(A)p.r(A)p.r(G)p.r(A)p.r(G)p.r(C)p.r(C)p.m(U)p.r(A)p.m(C)p.r(A)p.m(C)p.r(A)p.r(A)p.r(C)p.r(C)p.r(C)p.r(U)p.r(T)p.r(T)}|RNA2{r(A)p.r(G)p.r(G)p.r(G)p.r(U)p.m(U)p.r(G)p.m(U)p.r(G)p.m(U)p.r(A)p.r(G)p.r(G)p.r(C)p.r(U)p.r(C)p.r(U)p.r(U)p.r(C)p.r(T)p.r(T)}$$$RNA1{StrandType:ss}|RNA2{StrandType:as}$	75
RNA1{r(C)p.r(G)p.r(U)p.r(A)p.r(C)p.r(G)p.r(C)p.r(G)p.r(G)p.r(A)p.r(A)p.r(U)p.r(A)p.r(C)p.r(U)p.r(U)p.r(C)p.r(G)p.r(A)p.r(T)p.r(T)}|RNA2{[s4r](U)p.r(C)p.r(G)p.r(A)p.r(A)p.r(G)p.[s4r](U)p.r(A)p.[s4r](U)p.[s4r](U)p.r(C)p.r(C)p.r(G)p.r(C)p.r(G)p.[s4r](U)p.r(A)p.r(C)p.r(G)p.r(T)p.r(T)}$$$RNA1{StrandType:ss}|RNA2{StrandType:as}$	79.5
RNA1{r(A)p.m(U)p.r(A)p.r(C)p.r(U)p.m(U)p.m(G)p.r(G)p.r(C)p.r(G)p.r(G)p.r(G)p.m(C)p.r(U)p.r(C)p.r(U)p.r(U)p.r(U)p.r(C)p.r(T)p.r(T)}|RNA2{r(G)p.r(A)p.r(A)p.r(A)p.r(G)p.r(A)p.r(G)p.r(C)p.r(C)p.r(C)p.r(G)p.r(C)p.m(C)p.r(A)p.r(A)p.r(G)p.m(U)p.r(A)p.r(U)p.r(T)p.r(T)}$$$RNA1{StrandType:ss}|RNA2{StrandType:as}$	70
RNA1{r(G)p.r(G)p.m(U)p.r(A)p.r(G)p.r(G)p.r(G)p.r(U)p.m(U)p.r(G)p.r(A)p.r(A)p.r(G)p.r(A)p.r(G)p.r(A)p.r(C)p.r(U)p.r(U)p.r(T)p.r(T)}|RNA2{r(A)p.r(A)p.r(G)p.r(U)p.r(C)p.r(U)p.r(C)p.r(U)p.r(U)p.m(C)p.r(A)p.r(A)p.r(C)p.r(C)p.r(C)p.m(U)p.r(A)p.r(C)p.r(C)p.r(T)p.r(T)}$$$RNA1{StrandType:ss}|RNA2{StrandType:as}$	94
RNA1{r(A)p.r(A)p.r(G)p.r(G)p.r(A)p.r(C)p.r(C)p.[fl2r](U)p.r(A)p.r(G)p.r(A)p.r(G)p.r(G)p.r(A)p.r(G)p.r(U)p.r(C)p.r(A)p.r(C)p.r(T)p.r(T)}|RNA2{r(G)p.r(U)p.r(G)p.r(A)p.r(C)p.r(U)p.r(C)p.r(C)p.r(U)p.r(C)p.[fl2r](U)p.r(A)p.r(G)p.r(G)p.r(U)p.r(C)p.r(C)p.r(U)p.r(U)p.r(T)p.r(T)}$$$RNA1{StrandType:ss}|RNA2{StrandType:as}$	88
